The results in this text go back to EP0280239A1, “1,4-Dihydropyridine derivatives, production and use thereof” (SANWA KAGAKU KENKYUSHO CO., LTD., priority 1987, dated 1988).

What all share (format): in vivo
The test system of test [1] is mongrel dogs. The experiment in a line: Blood flow increasing action (vertebral and femoral arterial blood flow, blood pressure) in anesthetized dogs. As to conditions: Canis lupus familiaris, iv, read-out: ED50, i.v. (amount required to increase the vertebral arterial blood flow by 50%).
In test [2] the test system is mongrel dogs. The description is as above. As to conditions: 1µg/kg, i.v., 5 head. Here is the method: Pharmacological Test Example 1 (Blood flow increasing action)
An experiment was carried out by anesthetizing adult made and female mongrel dogs (weight; 10 to 20kg) with Nembutal (30mg/kg, i.p.) and artificially respiring (20ml/kg/stroke, 20 strokes/min.) the animals.
Right vertebral and femoral arteries were exposed and each probe of electro-magnetic flow meter was fitted therein to measure vertebral and femoral arterial blood flows. A cannula was inserted into descending aorta from left femoral artery, in order to measure blood pressure by a pressure transducer connected to an amplifier. Each of test compounds dissolved in 50% ethanol solution (1µg/kg, i.v.) was administered from the cannula into cephlic vein.
Further, an amount of the compound required to increase the vertebral arterial blood flow by 50% was checked to obtain results shown in following Table 2, wherein the amount is given as ED₅₀ (µg/kg).

Test [3] deals with spontaneously hypertensive rats. The experiment in a line: Blood pressure depressing action in spontaneously hypertensive rats. As to conditions: male spontaneously hypertensive rats, oral, 3.0 mg/kg, N=6; for systric pressure of median sacral artery, change at 1 hr (%): 1 hr after administration; for systric pressure of median sacral artery, change at 2 hr (%): 2 hr after administration; for systric pressure of median sacral artery, change at 4 hr (%): 4 hr after administration; for systric pressure of median sacral artery, change at 6 hr (%): 6 hr after administration; for systric pressure of median sacral artery, change at 24 hr (%): 24 hr after administration.
Excerpt: Pharmacological Test Example 2 (Blood pressure depressing action)

A word on the ED50: it is the dose that gives a 50% effect, or the effect in half of the subjects. With `CC1=C(C(=O)OCCN2Cc3ccc(Cl)cc3C2)C(c2cccc([N+](=O)[O-])c2)C(C(=O)OCC2CC2)=C(C)N1` (centres unmarked) [Example 2, 3-[2-(5-Chloroisoindolin-2-yl)ethyl] 5-cyclopropymethyl 1.4-dihydro-2,6-dimethyl-4-(3-nitrophenyl)-pyridine-3,5-dicarboxylate], in the test with mongrel dogs [1], the ED50 came out at 1.6 µg/kg. In the test on mongrel dogs [2], the “Change (%) DBP (Diastolic blood pressure)” value (“Change (%) DBP” for short) is -7 ± 2%, the “Change (%) FABF (Femoral arteial blood flow)” value (“Change (%) FABF” for short) came to 23 ± 8% and the “Change (%) VABF (Vertebral arterial blood flow)” value (from here on “Change (%) VABF”) is listed as 40 ± 6%. Further, in test [3], the “systric pressure of median sacral artery, change at 1 hr (%)” value (“systric pressure … change at 1 hr (%)” below) is recorded as -3.0±1.47%; the “systric pressure of median sacral artery, change at 2 hr (%)” value (shortened to “systric pressure … change at 2 hr (%)”) was -9.0±2.82%; the “systric pressure of median sacral artery, change at 4 hr (%)” value (“systric pressure … change at 4 hr (%)” for short) is recorded as -13.2±6.15%; the “systric pressure of median sacral artery, change at 6 hr (%)” value (“systric pressure … change at 6 hr (%)” below) is recorded as -21.4±3.67%. The “systric pressure of median sacral artery, change at 24 hr (%)” value (shortened to “systric pressure … change at 24 hr (%)”) in test [3] is -14.3±4.09%.
Take `CC1=C(C(=O)OCCN(C)Cc2ccc(Cl)cc2Cl)C(c2cccc([N+](=O)[O-])c2)C(C(=O)OCC2CC2)=C(C)N1` (centres unmarked) [Example 1, 3-Cyclopropylmethyl 5-[2-[N-(2,4-dichlorobenzyl)-N-methylamino]-ethyl]1.4-dihydro-2,6-dimethyl-4-(3-nitrophenyl)-pyridine-3,5-dicarboxylate]: the ED50 in the test with mongrel dogs [1] is 1.1 µg/kg. Besides, in the test with mongrel dogs [2], the “Change (%) DBP” value is on record as -7 ± 1%, the “Change (%) FABF” value is listed as 23 ± 7% and the “Change (%) VABF” value worked out at 90 ± 17%. In addition, in test [3], the “systric pressure … change at 1 hr (%)” value is on record as -33.3±6.57%; the “systric pressure … change at 2 hr (%)” value is on record as -35.2±4.12%; the “systric pressure … change at 4 hr (%)” value is -34.0±2.42%; the “systric pressure … change at 6 hr (%)” value is reported as -32.8±2.72%. In addition, in test [3], the “systric pressure … change at 24 hr (%)” value is -13.0±5.94%.
With `COC(=O)C1=C(C)NC(C)=C(C(=O)OC)C1c1ccccc1[N+](=O)[O-]` [Nifedipine, dimethyl ester of 1,4-dihydro-2,6-dimethyl-4-(2-nitrophenyl)pyridine-3,5-dicarboxylic acid, reference compound], in test [3], the “systric pressure … change at 1 hr (%)” value is reported as -19.3±4.41%; the “systric pressure … change at 2 hr (%)” value was -10.6±3.14%; the “systric pressure … change at 4 hr (%)” value is given as -4.3±2.70%; the “systric pressure … change at 6 hr (%)” value is -0.1±1.56%. The “systric pressure … change at 24 hr (%)” value in test [3] was -1.1±1.06%.
Take `COC(=O)C1=C(C)NC(C)=C(C(=O)OCCN(C)Cc2ccccc2)C1c1cccc([N+](=O)[O-])c1` (centres unmarked) [Nicardipine, 1,4-dihydro-2,6-dimethyl-4-(3-nitrophenyl)pyridine-3,5-dicarboxylic acid 3-2-(N-benzyl-N-methylamino)ethyl 5-methyl ester, reference compound]: the ED50 in the test with mongrel dogs [1] came out at 4.2 µg/kg. For the same compound, in the test with mongrel dogs [2], the “Change (%) DBP” value is -10 ± 1%, the “Change (%) FABF” value amounted to 14 ± 5% and the “Change (%) VABF” value was determined as 32 ± 7%. For the same compound, in test [3], the “systric pressure … change at 1 hr (%)” value was -10.0±2.28%; the “systric pressure … change at 2 hr (%)” value is listed as -5.7±1.61%; the “systric pressure … change at 4 hr (%)” value is given as -3.0±2.01%; the “systric pressure … change at 6 hr (%)” value is listed as -1.0±1.50%. The “systric pressure … change at 24 hr (%)” value in test [3] is listed as -4.2±1.88%.
